Source: patent publication EP4361137A1, “PRUNE1 INHIBITORS AND THERAPEUTIC USE THEREOF” (CEINGE Biotecnologie Avanzate Franco Salvatore s.c. a r.l., priority 2022, dated 2024)

How the values were obtained:
MMTV-Prune1/Wnt1 cells [1] = assay: Real-time cell migration analysis (cell index); type: cell-based, murine; settings: 10 µM and 100 µM, dose dependent
MMTV-Prune1/Wnt1 cells [2] = assay: Real-time cell proliferation assay (cell index, xCELLigence); type: cell-based, murine; settings: 10 µM and 100 µM, dose dependent
Procedure: (§1) D425.MED and MMTV-Prune1/Wnt1 cells were plated and treated with increasing concentrations of LEO-AA7.5(S)T for 24 hours. Water-treated cells were used as negative control for the experiments.
Cellular proliferation rates were determined with the xCELLigence system (Roche). D425-MED, MATH-Prune1/TP53-/- and MMTV-Prune1/Wnt1 cells (8 × 10^3) were treated with increasing concentrations of LEO-AA7.5(S)T, harvested, and then added to a single well of an xCELLigence E-plate 16. The proliferation rates were determined at 2-min intervals by measuring the impedance changes across the electrodes at the bottoms of the wells. These cell index values were calculated by the xCELLigence RTCA software. with vehicle-treated cells were the negative control. Impedance was measured every 2 min over 24 hours. The IC50 values were calculated through nonlinear regression analysis performed with Graph Pad Prism 9 ([inhibitor] vs. response (three parameters). Data are means ± SD of three independent experiments.

murine PRUNE1 = assay: qPCR of PRUNE1 mRNA in MATH1-Prune1/TP53-/- cells; type: cell-based; settings: 10 µM, 24 hours, relative to vehicle
Procedure: (§2) RNA samples were extracted using TRIzol RNA Isolation Reagent (15596026, Invitrogen), according to the manufacturer instructions. Reverse transcription was performed with 5× All-In-One RT MasterMix (g592; ABM), according to the manufacturer instructions. The reverse transcription products (cDNA) were amplified by qRT-PCR using an RT-PCR system (7900; Applied Biosystems, Foster City, CA, USA). The cDNA preparation was through the cycling method, by incubating the complete reaction mix as follows: cDNA reactions: (37 °C for 10 min and 60 °C for 15 min); Heat-inactivation: 95 °C for 3 min; Hold stage: 4 °C. The targets were detected with the SYBR green approach, using BrightGreen BlasTaq 2× PCR MasterMix (G895; ABM). Human ACTB was used as the housekeeping gene to normalize the quantification cycle (Cq) values of the other genes. These runs were performed on a PCR machine (Quantstudio5, Lifetechnologies) with the following thermal protocol: Hold stage: 50 °C for 2 min; Denaturation Step: 95 °C for 10 min; Denaturation and annealing (×45 cycles): 95 °C for 15 s and 60 °C for 60 s; Melt curve stage: 95 °C for 15 s, 60 °C for 1 min, and 95 °C for 15 s. Relative expression of the target genes was determined using the 2^-ΔΔCq method, as the fold increase compared with the controls. The data are presented as means ±SD of the 2^-ΔΔCq values (normalized to human ACTB) of three replicates.

human PRUNE1 = assay: qPCR of PRUNE1 mRNA in MATH1-Prune1/TP53-/- cells; type: cell-based; settings: 10 µM, 24 hours, relative to vehicle
Procedure: as §2

CD4+/ CD8+ T cells = assay: Tconv to Treg conversion of T cells grown in conditioned media (immunofluorescence CD4/FOXP3); type: cell-based, FVB mice
Procedure: The isolation of untouched mouse CD4+/ CD8+ T cells from single-cell suspensions from spleen of n.2 naive FVB mice were performed by using Pan T Cell Isolation Kit II, mouse (130-095-130, Miltenyi biotec), according to the manufacturer instruction. Once isolated, T cells were grown for 48 hours in the conditioned media previously collected for 24 hours from pooled vehicle- or 10 µM LEO-AA7.5(S)T-treated MATH1-Prune1/TP53-/- cells.
T cells grown for 48 hours in conditioned media collected from vehicle- or LEO-AA7.5(S)T-treated MATH1-Prune1/TP53-/- cells were fixed in 4% paraformaldehyde in phosphate-buffered saline (PBS) for 30 min, washed three times with PBS, and permeabilized for 15 min with 0.1% Triton X-100 (215680010; Acros Organics) diluted in PBS. The cells were then blocked with 3% bovine serum albumin (A9418; Sigma) in PBS for 1 h at room temperature. The samples were incubated with the appropriate primary antibodies overnight at 4 °C: anti-FOXP3 (1:2000; ab54501; Abcam); anti-CD4 (1:100; sc-19641, SantaCruz). After washing with PBS, the samples were incubated with the secondary antibody at room temperature for 1 h, as anti-mouse Alexa Fluor 488 (1:200; ab 150113; Abcam) or anti-rabbit Alexa Fluor 546 (1:200; Abcam). DNA was stained with DAPI (1:1000; #62254, Thermo Fisher). The slides were washed and mounted with cover slips with 50% glycerol (G5150; Sigma-Aldrich). […]

human and murine Prune1 = assay: qPCR of PRUNE1 mRNA in MMTV-Prune1/Wnt1 cells; type: cell-based; set-up: dose or concentration left out as unconfirmed
Procedure: as §1
as §2, with “These runs were performed on a PCR machine (Quantstudio5, Lifetechnologies) with the following thermal protocol: Hold stage: 50 °C for 2 min; Denaturation Step: 95 °C for 10 min; Denaturation and annealing (×45 cycles): 95 °C for 15 s and 60 °C for 60 s; Melt curve stage: 95 °C for 15 s, 60 °C for 1 min, and 95 °C for 15 s.” left out, “The data are presented as means ±SD of the 2^-ΔΔCq values (normalized to human ACTB) of three replicates.” left out

CCL2 = assay: ELISA of CCL2 in sera of implanted mice; type: in vivo, FVB WT mice; settings: 6 mg/kg/day intraperitoneally for seven days; n.5 per group
Procedure: ELISA assay ([…]) was performed by following the manufacturer instruction, to measure the levels of CCL2 cytokine in the sera from immunocompetent syngeneic mice orthotopically implanted with MATH1-Prune1/ TP53-/- cells and treated intraperitoneally for seven days with LEO-AA7.5(S)T (n.5) at 6 mg/kg/day, or with water (n.5) as the vehicle control group.

COc1ccc(CNc2ncnc(N3CCC[C@H](CO)C3)n2)cc1.Cl [LEO-AA7.5(S)T, (S)-(1-(4-((4-methoxybenzyl)amino)-1,3,5-triazin-2-yl)piperidin-3-yl)methanol HCl salt]
migration rate (MMTV-Prune1/Wnt1 cells [1]): reduction
proliferation rate (MMTV-Prune1/Wnt1 cells [2]): reduction
murine endogenous Prune1 mRNA (murine PRUNE1): 0.4 fold
human endogenous Prune1 mRNA (human PRUNE1): 0.15 fold
percentage of Tregs (CD4+FOXP3+) among T cells (CD4+/ CD8+ T cells; T cells 48 hours in conditioned media of cells treated with 10 µM for 24 hours, vs vehicle conditioned media): decrease
inhibition of the conversion from Tconv to Treg cells, compared with 100 µM AA7.1 (CD4+/ CD8+ T cells; ex vivo, 10 µM vs 100 µM AA7.1): comparable
degradation of human and murine Prune transcript (human and murine Prune1): enhance the degradation
sera circulating CCL2 (CCL2): decreased levels
